Values of other authors, collected in US11020416B2, “Cancer chemotherapy employing halogenated analogs of thymidine” (priority 2015, dated 2021).
Read-outs that look alike come from different tables or passages of the source.

Experiments:
[1] = 14-day continuous infusion alternating with 14 days without infusion; cited from earlier work
[2] = cited from earlier work; for [IdU] plasma, average steady-state: continuous iv; for [IU] plasma (iodouracil), average steady-state: continuous iv IdU
Carcinoma, Melanoma = settings: trial c, 1962, 39 patients, dose 3.5, iv, no radiation, single cycle 1 week; cited from earlier work
PARP1 = PARP1 (Homo sapiens, UniProt P09874); settings: solution; Pivazyan, 1992; cited from earlier work
[3] = system: Melanoma, Carcinoma, Sarcoma; settings: trial a, 1961, 16 patients, dose 3.1, iv, rad +/−, multiple cycles up to 5 months; cited from earlier work
[4] = intraperitoneal, Morgan 1998, cited from earlier work
Unresectable Sarcoma = settings: trial d, 1987, 14 patients, dose 1.3, iv, with radiation, multiple cycles up to 5 months, cited from earlier work
[5] = system: Oropharynx and Upper Extremity Tumors; settings: trial b, 1962, 4 patients, dose 3.9, iv/ia, no radiation, single cycle 1 week; cited from earlier work
[6] = system: Colorectal Liver Metastases; settings: trial f, 1989, 11 patients, dose 1.0, ia, no radiation, multiple cycles up to 5 months, cited from earlier work
[7] = schedule G, 1.000 Grams/M^2/day, Kinsella 1988
[8] = schedule I, 0.781 Grams/M^2/day, Schultz 2004
[9] = schedule J, 0.625 Grams/M^2/day, Schultz 2004
[10] = schedule M, 0.500 Grams/M^2/day, Schultz 2004
[11] = schedule N, 0.400 Grams/M^2/day, Schultz 2004
[12] = schedule O, 0.300 Grams/M^2/day, Schultz 2004
[13] = schedule Q, 0.200 Grams/M^2/day, Schultz 2004
[14] = schedule R, 0.100 Grams/M^2/day, Schultz 2004
[15] = schedule A, 4.538 Grams/M^2/4 hr (2 liters), 64 millimolar

Chain of PARP1 (P09874 whole entry, species assumed): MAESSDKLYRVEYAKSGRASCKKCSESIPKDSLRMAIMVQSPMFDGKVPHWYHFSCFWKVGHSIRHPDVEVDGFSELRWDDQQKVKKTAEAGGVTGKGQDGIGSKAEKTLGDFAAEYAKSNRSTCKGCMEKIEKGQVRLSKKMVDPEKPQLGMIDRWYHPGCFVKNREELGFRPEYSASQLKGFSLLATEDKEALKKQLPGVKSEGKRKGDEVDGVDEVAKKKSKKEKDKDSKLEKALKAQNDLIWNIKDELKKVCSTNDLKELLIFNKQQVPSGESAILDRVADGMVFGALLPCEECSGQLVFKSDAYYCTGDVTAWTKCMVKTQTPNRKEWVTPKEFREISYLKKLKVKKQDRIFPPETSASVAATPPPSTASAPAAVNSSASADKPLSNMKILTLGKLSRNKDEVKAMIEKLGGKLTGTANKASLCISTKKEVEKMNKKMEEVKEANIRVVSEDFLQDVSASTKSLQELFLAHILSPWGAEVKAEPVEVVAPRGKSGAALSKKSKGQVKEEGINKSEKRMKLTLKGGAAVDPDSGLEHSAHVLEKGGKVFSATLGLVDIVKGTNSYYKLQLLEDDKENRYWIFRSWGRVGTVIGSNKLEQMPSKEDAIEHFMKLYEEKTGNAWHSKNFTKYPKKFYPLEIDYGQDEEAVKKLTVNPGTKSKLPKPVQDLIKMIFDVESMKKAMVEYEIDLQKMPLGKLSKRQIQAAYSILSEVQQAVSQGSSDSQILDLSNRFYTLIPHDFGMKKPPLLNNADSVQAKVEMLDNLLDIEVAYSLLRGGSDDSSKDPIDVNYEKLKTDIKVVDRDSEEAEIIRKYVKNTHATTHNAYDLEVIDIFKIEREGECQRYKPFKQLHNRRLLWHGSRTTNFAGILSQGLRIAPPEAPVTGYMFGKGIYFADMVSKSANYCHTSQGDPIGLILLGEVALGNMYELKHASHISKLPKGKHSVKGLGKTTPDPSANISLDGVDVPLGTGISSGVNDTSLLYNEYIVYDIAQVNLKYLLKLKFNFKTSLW

In the case of O=c1[nH]c(=O)n([C@H]2C[C@H](O)[C@@H](CO)O2)cc1I [Iododeoxyuridine, 5-iododeoxyuridine], the “time after HAT withdrawal to myelosuppression nadir and return of blood cell counts to normal” value [1] is given as 7 to 10 days, the plasma concentration achieved ([2]; continuous circulatory infusion, historic trials d-f) is given as greater than 1000 nM and the “elimination from patient plasma” value ([2]; pharmacokinetic analysis in patients) is given as “rapidly eliminated”. The “[IdU] plasma, average steady-state” value ([2]; schedule C, 1.200 Grams/M^2/day, Klecker 1985) was 7.4 µM, the “[IdU] plasma, average steady-state” value ([2]; schedule D, 1.200 Grams/M^2/day, Kinsella 1988) was 3.4 µM and the “[IdU] plasma, average steady-state” value ([2]; schedule E, 1.000 Grams/M^2/day, Klecker 1985) was 5.6 µM. For the same molecule, the “[IU] plasma (iodouracil), average steady-state” value (shortened to “[IU] plasma (iodouracil)”) [2, 7] was greater than 20 µM, the “[IdU] plasma, average steady-state” value [2, 7] was 2.4 µM and the “[IdU] plasma, average steady-state” value ([2]; schedule H, 0.850 Grams/M^2/day, Klecker 1985) was 4.5 µM. The “[IU] plasma (iodouracil)” value [2, 8] was 21.8 µM, the “[IdU] plasma, average steady-state” value [2, 8] was 1.5 µM and the “[IU] plasma (iodouracil)” value [2, 9] was 13.9 µM. For the same molecule, the “[IdU] plasma, average steady-state” value [2, 9] was 1.3 µM, the “[IdU] plasma, average steady-state” value ([2]; schedule K, 0.500 Grams/M^2/day, Klecker 1985) was 2.9 µM and the “[IdU] plasma, average steady-state” value ([2]; schedule L, 0.500 Grams/M^2/day, Kinsella 1988) was 1.3 µM. For the same molecule, the “[IU] plasma (iodouracil)” value [2, 10] was 6.0 µM, the “[IdU] plasma, average steady-state” value [2, 10] was 0.92 µM and the “[IU] plasma (iodouracil)” value [2, 11] was 4.3 µM. The “[IdU] plasma, average steady-state” value [2, 11] was 0.90 µM, the “[IU] plasma (iodouracil)” value [2, 12] was 3.0 µM and the “[IdU] plasma, average steady-state” value [2, 12] was 0.57 µM. For the same molecule, the “[IdU] plasma, average steady-state” value ([2]; schedule P, 0.250 Grams/M^2/day, Klecker 1985) was 1.1 µM, the “[IU] plasma (iodouracil)” value [2, 13] was 1.4 µM and the “[IdU] plasma, average steady-state” value [2, 13] was 0.79 µM. For the same molecule, the “[IU] plasma (iodouracil)” value [2, 14] was 0.38 µM, the “[IdU] plasma, average steady-state” value [2, 14] was 0.51 µM and the objective improvement (Carcinoma, Melanoma) was 26%. For the same molecule, the Ki (PARP1) was 18 µM, the objective improvement [3] was 38% and the subjective improvement [3] was 38%. For the same molecule, the “Peritoneal AUC” value [4, 15] was 4099 µM·h, the “Plasma AUC” value [4, 15] was 139 µM·h and the “Plasma AUC” value ([4]; schedule F, 0.625 Grams/M^2/4 hr (2 liters), 9 millimolar) was 4.38 µM·h. The objective improvement (Unresectable Sarcoma) was 80%, the subjective improvement (Unresectable Sarcoma) was “more than half of patients” and the subjective improvement (Unresectable Sarcoma; listed as IUDR) was 57%. For the same molecule, the objective improvement [5] was 100%, the subjective improvement [5] was 100% and the objective improvement [6] was “almost half of the patients”. For the same molecule, the objective improvement ([6]; listed as IUDR) was 45%.
